{"source": "BindingDB's records for doi:10.1016/s0960-894x(00)00601-6", "about": "(National Cancer Istitute-Frederick Cancer Research and …, 2001)", "key": {"[1]": {"molecular_target": "T1, C-C chemokine receptor type 1 (Homo sapiens, UniProt P32246)", "T1 sequence (P32246 whole entry)": "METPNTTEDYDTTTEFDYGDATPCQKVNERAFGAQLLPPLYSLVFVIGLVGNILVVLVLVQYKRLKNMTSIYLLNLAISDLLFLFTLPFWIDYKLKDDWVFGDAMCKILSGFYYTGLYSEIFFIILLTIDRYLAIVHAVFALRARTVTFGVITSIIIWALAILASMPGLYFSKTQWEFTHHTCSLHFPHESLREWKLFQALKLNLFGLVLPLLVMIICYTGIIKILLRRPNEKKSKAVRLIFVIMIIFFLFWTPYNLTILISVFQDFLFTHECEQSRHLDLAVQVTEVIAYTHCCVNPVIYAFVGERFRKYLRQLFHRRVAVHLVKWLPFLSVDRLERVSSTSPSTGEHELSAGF", "assay": "ChEBML_40342", "source_text": "Inhibition of RANTES-induced migration of human embryonic kidney (CCR1/HEK) cell transfectants"}, "[2]": {"assay": "Inhibition of RANTES-induced migration of human embryonic kidney (CCR1/HEK) cell transfectants"}}, "data": [{"smiles": "[C][C]([C])[C][C][C][C]([C])[C@H]1[C][C][C@H]2[C@@H]3[C][C][C]4[C][C@@H]([C][C][C]=C(c5cc(Cl)c(O[C]c6cccc(B([O])O)c6)c(C(=O)O)c5)c5cc(Cl)c(O[C]c6cccc(B([O])O)c6)c(C(=O)O)c5)[C][C][C@]4([C])[C@H]3[C][C][C@]12[C]", "note": "[Cosalane derivative]", "values": [{"measurement": "IC50", "setting": "[1]", "value": 4, "unit": "µM"}]}, {"smiles": "CC(C)CCCC(C)[C@H]1CC[C@H]2[C@@H]3CCC4C[C@@H](CCC=C(c5cc(Cl)c(O)c(C(=O)NCC(=O)O)c5)c5cc(Cl)c(O)c(C(=O)NCC(=O)O)c5)CC[C@]4(C)[C@H]3CC[C@]12C", "note": "(some centres undefined)", "values": [{"measurement": "IC50", "setting": "[2]", "value": 10, "unit": "µM"}]}, {"smiles": "[C][C]([C])[C][C][C][C]([C])[C@H]1[C][C][C@H]2[C@@H]3[C][C][C]4[C][C@@H]([C][C][C]=C(c5cc(Cl)c(O[C]c6ccc(-c7cccc(C([O])=O)c7)cc6)c(C(=O)O)c5)c5cc(Cl)c(O[C]c6ccc(-c7cccc(C([O])=O)c7)cc6)c(C(=O)O)c5)[C][C][C@]4([C])[C@H]3[C][C][C@]12[C]", "note": "[5-{1-{3-carboxylato-4-[4-(3-carboxyphenyl)benzyloxy]-5-chlorophenyl}-4-[1-(1,5-dimethylhexyl)-9a,11a-dimethylperhydrocyclopenta[a]phenanthren-7-yl]-1-butenyl}-2-[4-(3-carboxyphenyl)benzyloxy]-3-chlorobenzoate]", "values": [{"measurement": "IC50", "setting": "[1]", "value": 9.1, "unit": "µM"}]}, {"smiles": "CC(C)CCCC(C)[C@H]1CC[C@H]2[C@@H]3CCC4C[C@@H](CCC=C(c5cc(Cl)c(O)c(C(=O)O)c5)c5cc(Cl)c(O)c(C(=O)O)c5)CC[C@]4(C)[C@H]3CC[C@]12C", "note": "(some centres undefined)", "values": [{"measurement": "IC50", "setting": "[2]", "value": 0.26, "unit": "µM"}]}]}
